Key:
[1] = test system: H9/HIV-1IIIB; details: previously reported; cited from earlier work
[2] = test system: panel of 51 Env-pseudotyped viruses; experiment: microbe, parasite or virus in culture; format: cell-based; details: Human immunodeficiency virus 1, read-out: IC50 range over the pseudovirus panel
[3] = test system: HIV-1 Env pseudovirus QB726.70M.ENV.C4; details: QB726.70M.ENV.C4, subtype A, NIH # 11888; previously published ref 18; cited from earlier work
[4] = test system: HIV-1 Env pseudovirus QF495.23M.ENV.A1; details: QF495.23M.ENV.A1, subtype A, NIH # 11890; previously published ref 18; cited from earlier work
[5] = test system: HIV-1 Env pseudovirus QF495.23M.ENV.B2; details: QF495.23M.ENV.B2, subtype A, NIH # 11892; previously published ref 18; cited from earlier work
[6] = test system: HIV-1 Env pseudovirus BG505-T332N; details: subtype A, previously published ref 18; cited from earlier work
[7] = test system: HIV-1 Env pseudovirus QG393.60M.ENV.A1; details: QG393.60M.ENV.A1, subtype A2/D, NIH # 11905; previously published ref 18; cited from earlier work
[8] = test system: HIV-1 Env pseudovirus QG393.60M.ENV.B7; details: QG393.60M.ENV.B7, subtype A2/D, NIH # 11906; previously published ref 18; cited from earlier work
[9] = test system: HIV-1 Env pseudovirus QG393.60M.ENV.B8; details: QG393.60M.ENV.B8, subtype A2/D, NIH # 11907; previously published ref 18; cited from earlier work
[10] = test system: HIV-1 Env pseudovirus CRF02_AG clone 266; details: CRF02_AG clone 266, subtype A/G, NIH # 11602; previously published ref 18; cited from earlier work
[11] = test system: HIV-1 Env pseudovirus CRF02_AG clone 278; details: CRF02_AG clone 278, subtype A/G, NIH # 11605; previously published ref 18; cited from earlier work
[12] = test system: HIV-1 Env pseudovirus p1058_11.B11.1550; details: p1058_11.B11.1550, subtype B, NIH # 11563, R5X4-tropic; previously published ref 18; cited from earlier work
[13] = test system: HIV-1 Env pseudovirus QH0692, clone 42; details: QH0692, clone 42, subtype B, NIH # 11018; previously published ref 18; cited from earlier work
[14] = test system: HIV-1 Env pseudovirus AC10.0, clone 29; details: AC10.0, clone 29, subtype B, NIH # 11024; previously published ref 18; cited from earlier work
[15] = test system: HIV-1 Env pseudovirus pTHRO4156 clone 18; details: pTHRO4156 clone 18, subtype B, NIH # 11037; previously published ref 18; cited from earlier work
[16] = test system: HIV-1 Env pseudovirus pCAAN5342 clone A2; details: pCAAN5342 clone A2, subtype B, NIH # 11038; previously published ref 18; cited from earlier work
[17] = test system: HIV-1 Env pseudovirus SC422661.8; details: SC422661.8, subtype B, NIH # 11058; previously published ref 18; cited from earlier work
[18] = test system: HIV-1 Env pseudovirus ZM214M.PL15; details: ZM214M.PL15, subtype C, NIH # 11310; previously published ref 18; cited from earlier work
[19] = test system: HIV-1 Env pseudovirus ZM135M.PL10a; details: subtype C, NIH # 11315, previously published ref 18; cited from earlier work
[20] = test system: HIV-1 Env pseudovirus CAP210.2.00.E8; details: CAP210.2.00.E8, subtype C, NIH # 11317; previously published ref 18; cited from earlier work
[21] = test system: HIV-1 Env pseudovirus QB099.391M.ENV.C8; details: QB099.391M.ENV.C8, subtype C, NIH # 11909; previously published ref 18; cited from earlier work
[22] = test system: HIV-1 Env pseudovirus QD435.100M.ENV.E1; details: QD435.100M.ENV.E1, subtype D, NIH # 11918; previously published ref 18; cited from earlier work
[23] = test system: HIV-1 Env pseudovirus BF535.W6M.ENV.A1; details: BF535.W6M.ENV.A1, subtype D/A, NIH # 11517 (infant); previously published ref 18; cited from earlier work

## CC1(C)CC(NC(=O)C(=O)Nc2ccc(Cl)cc2)CC(C)(C)N1 [NBD-556]
[1]
  inhibition of cell-to-cell HIV-1 transmission: failed to do so

## Cc1nc([C@H](NC(=O)c2ccc(-c3ccc(Cl)cc3)[nH]2)[C@@H]2CCCCN2)sc1CO [NBD-11021A2]
[2]
  IC50: 0.32 to 4.4 µM
[3]
  IC50: 1.3 ± 0.3 µM
[4]
  IC50: 1.3 ± 0.4 µM
[5]
  IC50: 0.6 ± 0.4 µM
[6]
  IC50: 1 ± 0.1 µM
[7]
  IC50: 0.41 ± 0.2 µM
[8]
  IC50: 0.8 ± 0.3 µM
[9]
  IC50: 0.48 ± 0.2 µM
[10]
  IC50: 1 ± 0.2 µM
[11]
  IC50: 1.3 ± 0.5 µM
[12]
  IC50: 1.1 ± 0.8 µM
[13]
  IC50: 0.52 ± 0.1 µM
[14]
  IC50: 0.32 ± 0.01 µM
[15]
  IC50: 1 ± 0.2 µM
[16]
  IC50: 0.6 ± 0.07 µM
[17]
  IC50: 0.33 ± 0.01 µM
[18]
  IC50: 2.7 ± 0.2 µM
[19]
  IC50: 2.7 ± 1.2 µM
[20]
  IC50: 2.8 ± 0.7 µM
[21]
  IC50: 1.8 ± 0.5 µM
[22]
  IC50: 3.7 ± 0.1 µM
[23]
  IC50: 2.8 ± 0.6 µM

— PMC5079829 (Bioorganic & medicinal chemistry, 2016)
